In US7915293B2, “Ubiquitin ligase inhibitors” (Rigel Pharmaceuticals, Inc., priority 2003, dated 2011):

Experiments:
Set-up in all cases: key: “+” indicates that the compound exibits inhibitory activity; “−” indicates that low or no inhibitory activity was observed
[1] = molecular target: E3 (His-APC11/APC2-"APC") (Homo sapiens, UniProt Q9NYG5+Q9UJX6); assay: Plate-based E3 ligase assay (APC FLAG), auto-ubiquitination; assay type: biochemical; conditions: for APC Flag 8 pt: 8 concentrations tested
Outline: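 His-APC11/APC2 auto-ubiquitination was run in casein-blocked nickel plates for 1 h at room temperature, with E1 at 5 ng/well, UbcH5c at 20 ng/well and APC at 100 ng/well. Buffer was 62.5 mM Tris pH 7.6, 3 mM MgCl2, 1 mM DTT, 2.5 mM ATP and Flag-ubiquitin at 100 ng/well. Detection used anti-Flag/HRP chemiluminescence, and IC50 was typically from 6 or 8 concentrations versus a DMSO control.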

HeLa cells = assay: Cell proliferation assay, photographic image analysis of proliferation, apoptosis and death (PAD assay), HeLa; assay type: cell-based; conditions: 6 concentrations tested
Protocol: (§1) A549 (ATCC# CCL-185), HeLa (ATCC# CCL-2), HCT116 (ATCC# CCL-247), and H1299 (ATCC# CRL-5803) cells were maintained in T175 flasks following the ATCC recommended media and handling procedures. Flasks reaching approximately 70% confluency were trypsinized and resuspended in RPMI media (Cell-Gro catalog number 10-040-CM) modified to contain 5% FBS, 100 ug/mlPen/Strep (Cell-Gro catalog number 30-002-CL), and 0.3 mg/ml L-Glutamine (Cell-Gro catalog number 25-003-CL). A 20,000 cells/ml solution was made for plating. Cells were plated in black Packard 96 well plates by placing 100 μl per well (2,000 cells per well).
(§2) Compounds and additional media were added 24 hours after cell plating. A compound master plate was created with concentrations 500 times greater than the final concentration added to the cells. All compound testing was done in duplicate using 6.3 fold dilutions starting with 10 mM. All outside wells (and 4 internal wells) were DMSO controls. Taxol and at least one additional control were run on all plates. Three microliters of the compound master plate were added to deep well blocks containing 750 μl of RPMI media. One hundred microliters were transferred from the compound/media deep well blocks to the plated cells resulting in a 500 fold dilution of the compounds. Cells were grown at 37° C., 5% CO2 for 48 hours.
(§3) Cells to be analyzed by photography were fixed and stained. One hundred microliters of media were removed and 100 μl of 9.3% […] was added to each well. Plates were left on the benchtop for 45 minutes. A staining solution containing 1.55 μl of 1 mg/ml DAPI added to 18.75 ml PBS was warmed for 15 minutes at 37° C. The cells were aspirated prior to washing with 100 μl of PBS. Seventy microliters of PBS were aspirated and 170 μl of the DAPI solution were added to each well of fixed cells. Plates were left at room temperature for one hour then aspirated and washed twice with 100 μl of PBS. The stained cells were left at 4° C. for a minimum of 16 hours before photographic analysis with Array Scan II (Cellomics). Analysis of the photographic images to determine numbers of live cells (proliferation), apoptotic cells and dead cells, were according to the methods described in U.S. Provisional Patent Application Ser. No. 60/406,714, which incorporated herein in its entirety.

A549 cells = assay: Cell proliferation assay, photographic image analysis of proliferation, apoptosis and death (PAD assay), A549; assay type: cell-based; conditions: 6 concentrations tested
Protocol: as §1, §2, §3

Chain of E3 (His-APC11/APC2-"APC") (Q9NYG5 whole entry): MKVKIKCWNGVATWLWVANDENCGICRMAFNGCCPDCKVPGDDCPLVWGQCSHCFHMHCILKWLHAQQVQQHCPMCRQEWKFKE
Chain of E3 (His-APC11/APC2-"APC") (Q9UJX6 whole entry): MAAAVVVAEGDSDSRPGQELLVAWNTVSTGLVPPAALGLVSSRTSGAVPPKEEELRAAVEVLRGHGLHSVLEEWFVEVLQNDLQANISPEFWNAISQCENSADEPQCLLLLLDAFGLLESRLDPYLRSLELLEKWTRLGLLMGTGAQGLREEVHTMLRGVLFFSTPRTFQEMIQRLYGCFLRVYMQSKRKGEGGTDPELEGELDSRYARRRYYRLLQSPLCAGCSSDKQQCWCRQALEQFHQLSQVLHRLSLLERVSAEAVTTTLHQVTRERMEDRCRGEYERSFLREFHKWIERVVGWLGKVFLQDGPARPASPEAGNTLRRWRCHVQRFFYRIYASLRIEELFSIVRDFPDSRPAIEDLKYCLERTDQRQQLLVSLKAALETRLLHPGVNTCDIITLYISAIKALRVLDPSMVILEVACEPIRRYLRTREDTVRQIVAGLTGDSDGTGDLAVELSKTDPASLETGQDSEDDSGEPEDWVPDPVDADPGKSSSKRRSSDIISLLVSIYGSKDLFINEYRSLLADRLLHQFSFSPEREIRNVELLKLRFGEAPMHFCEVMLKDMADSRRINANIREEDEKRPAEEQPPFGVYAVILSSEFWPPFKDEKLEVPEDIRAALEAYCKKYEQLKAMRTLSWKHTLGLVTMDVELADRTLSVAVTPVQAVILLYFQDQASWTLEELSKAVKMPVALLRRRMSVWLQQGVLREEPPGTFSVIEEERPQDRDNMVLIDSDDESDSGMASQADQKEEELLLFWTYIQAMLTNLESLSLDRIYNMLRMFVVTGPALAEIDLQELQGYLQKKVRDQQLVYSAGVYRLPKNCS

Structure (SMILES) | APC Flag (2 pt) ([1]; 2 concentrations tested) | PAD Assay, HELA 6 pt (HeLa cells) | PAD Assay, A549 6 pt (A549 cells) | APC Flag 8 pt [1]
O=[N+]([O-])c1ccc(Oc2c(Cl)cc(S(=O)(=O)Nc3ccccn3)cc2Cl)c(Cl)c1 [Compound 216, 3,5-dichloro-4-(2-chloro-4-nitrophenoxy)-N-pyridin-2-ylbenzenesulfonamide] | − (2 pt) | + | + | 
O=[N+]([O-])c1ccc(Oc2c(Cl)cc(S(=O)(=O)Nc3ccc(C(F)(F)F)cc3Cl)cc2Cl)c(Cl)c1 [Compound 240, 3,5-dichloro-4-(2-chloro-4-nitrophenoxy)-N-[2-chloro-4-(trifluoromethyl)phenyl]benzenesulfonamide] |  | + | + | +
Cc1ccc(F)cc1NS(=O)(=O)c1cc(Cl)c(Oc2ccc([N+](=O)[O-])cc2Cl)c(Cl)c1 [Compound 242, 3,5-dichloro-4-(2-chloro-4-nitrophenoxy)-N-(5-fluoro-2-methylphenyl)benzene sulfonamide] |  | + | + | +
O=S(=O)(Nc1ccc(Oc2ncccn2)c(Cl)c1)c1cccc(Cl)c1 [Compound 292, 3-chloro-N-[3-chloro-4-(pyrimidin-2-yloxy)phenyl]benzenesulfonamide] |  | − | + | 
O=S(=O)(Nc1ccc(Oc2ncc(C(F)(F)F)cc2Cl)cc1)c1cccc(Cl)c1 [Compound 294, 3-chloro-N-(4-(3-chloro-5-(trifluoromethyl)pyridyn-2-yloxy)phenyl)benzenesulfonamide] |  | + | + | 
O=C(Nc1cccc(Cl)c1)N1CCC(Oc2ccccc2C(F)(F)F)CC1 [Compound 305, N-(3-chlorophenyl)-4-(2-(trifluoromethyl)phenoxy)piperidine-1-carboxamide] |  | + | + | 
O=[N+]([O-])c1ccc(Oc2c(Cl)cc(S(=O)(=O)Nc3ccc(F)cc3F)cc2Cl)c(Cl)c1 [Example 17, 3,5-dichloro-4-(2-chloro-4-nitrophenoxy)-N-(2,4-difluorophenyl)benzene-sulfonamide] |  |  | − | +
CC1CN(S(=O)(=O)c2cc(Cl)c(Oc3ccc([N+](=O)[O-])cc3Cl)c(Cl)c2)CC(C)O1 (stereo not drawn) [Example 18, 4-{[3,5-dichloro-4-(2-chloro-4-nitrophenoxy)phenyl]sulfonyl}-2,6-dimethylmorpholine] |  |  | − | −
O=[N+]([O-])c1ccc(Oc2c(Cl)cc(S(=O)(=O)N3CCCCC3)cc2Cl)c(Cl)c1 [Example 21, 1-{[3,5-dichloro-4-(2-chloro-4-nitrophenoxy)phenyl]sulfonyl}piperidine] |  |  | − | −
N=C(NS(=O)(=O)c1cc(Cl)c(Oc2ccc([N+](=O)[O-])cc2Cl)c(Cl)c1)c1ccc(Cl)cc1 [Example 25, 4-chloro-N-{[3,5-dichloro-4-(2-chloro-4-nitrophenoxy)phenyl]sulfonyl}benzene-carboximidamide] |  |  | − | +
N=C(NS(=O)(=O)c1cc(Cl)c(Oc2ccc([N+](=O)[O-])cc2Cl)c(Cl)c1)c1cccnc1 [Example 26, N-{[3,5-dichloro-4-(2-chloro-4-nitrophenoxy)phenyl]sulfonyl}pyridine-3-carboximidamide] |  |  | + | −
N=C(NS(=O)(=O)c1cc(Cl)c(Oc2ccc([N+](=O)[O-])cc2Cl)c(Cl)c1)c1ccccn1 [Example 27, N-{[3,5-dichloro-4-(2-chloro-4-nitrophenoxy)phenyl]sulfonyl}pyridine-2-carboximidamide] |  |  | − | −
N=C(NS(=O)(=O)c1cc(Cl)c(Oc2ccc([N+](=O)[O-])cc2Cl)c(Cl)c1)c1ccncc1 [Example 29, N-{[3,5-dichloro-4-(2-chloro-4-nitrophenoxy)phenyl]sulfonyl}pyridine-4-carboximidamide] |  |  | + | +
N=C(CCl)NS(=O)(=O)c1cc(Cl)c(Oc2ccc([N+](=O)[O-])cc2)c(Cl)c1 [Example 31, 2-chloro-N-{[3,5-dichloro-4-(4-nitrophenoxy)phenyl]sulfonyl}ethanimidamide] |  |  | + | −
N=C(NS(=O)(=O)c1cc(Cl)c(Oc2ccc([N+](=O)[O-])cc2)c(Cl)c1)c1cccnc1 [Example 60, N-{[3,5-dichloro-4-(4-nitrophenoxy)phenyl]sulfonyl}pyridine-3-carboximidamide] |  |  | + | −
O=S(=O)(Nc1ccc(F)cc1C(F)(F)F)c1ccc(Oc2ncc(C(F)(F)F)cc2Cl)cc1 [Example 271, 4-{[3-chloro-5-(trifluoromethyl)pyridin-2-yl]oxy}-N-[4-fluoro-2-(trifluoromethyl)phenyl]benzenesulfonamide] |  | + | + | 
O=S(=O)(Nc1ccc(Oc2ncc(C(F)(F)F)cc2Cl)cc1)c1cccc(C(F)(F)F)c1 [Example 295, N-(4-(3-chloro-5-(trifluoromethyl)pyridin-2-yloxy)phenyl)-3-(trifluoromethyl)benzenesulfonamide] |  | + | + | 
O=S(=O)(Nc1ccc(Oc2cc(C(F)(F)F)ccn2)cc1)c1cccc(Cl)c1 [Example 297, 3-chloro-N-(4-(4-(trifluoromethyl)pyridin-2-yloxy)phenyl)benzenesulfonamide] |  | − | + | 
O=S(=O)(Nc1ccc(Oc2cc(C(F)(F)F)ccn2)cc1)c1cccc(C(F)(F)F)c1 [Example 298, 3-(trifluoromethyl)-N-(4-(4-(trifluoromethyl)pyridin-2-yloxy)phenyl)benzenesulfonamide] |  | + | + | 
O=S(=O)(Nc1ccc(Oc2cc(C(F)(F)F)ccn2)cc1)c1ccccc1C(F)(F)F [Example 299, 2-(trifluoromethyl)-N-(4-(4-(trifluoromethyl)pyridin-2-yloxy)phenyl)benzenesulfonamide] |  | − | + | 
O=S(=O)(c1cccc(Cl)c1)N1CCC(Oc2ccccc2C(F)(F)F)CC1 [Example 300, 1-(3-chlorophenylsulfonyl)-4-(2-(trifluoromethyl)phenoxy)piperidine] |  | + | + | 
O=S(=O)(c1cccc(C(F)(F)F)c1)N1CCC(Oc2ccccc2C(F)(F)F)CC1 [Example 301, 4-(2-(trifluoromethyl)phenoxy)-1-(3-(trifluoromethyl)phenylsulfonyl)piperidine] |  | + | + | 
O=S(=O)(c1ccccc1C(F)(F)F)N1CCC(Oc2ccccc2C(F)(F)F)CC1 [Example 302, 4-(2-(trifluoromethyl)phenoxy)-1-(2-(trifluoromethyl)phenylsulfonyl)piperidine] |  | + | + | 
O=C(Nc1ccccc1C(F)(F)F)N1CCC(Oc2ccccc2C(F)(F)F)CC1 [Example 306, 4-(2-(trifluoromethyl)phenoxy)-N-(2-(trifluoromethyl)phenyl)piperidine-1-carboxamide] |  | − | − | 
